Experimental data as given in patent US9668481B2, “Triazole derivatives” (priority 2013, dated 2017).
Like-named read-outs stand apart in the source and are kept apart here. Marks after values point to notes of the source that are not given here.

Experiments:
[1] = system: Fusarium nivale (var. majus); experiment: Fusarium nivale (var. majus)-test (wheat)/preventive; type: in vivo; details: 500 ppm of active ingredient, preventive, evaluated 5 days after inoculation
Method: (§1) Solvent: 49 parts by weight of N,N-dimethylacetamide Emulsifier: 1 part by weight of alkylaryl polyglycol ether To produce a suitable preparation of active compound, 1 part by weight of active compound or active compound combination is mixed with the stated amounts of solvent and emulsifier, and the concentrate is diluted with water to the desired concentration. To test for preventive activity, young plants are sprayed with the preparation of active compound or active compound combination at the stated rate of application. After the spray coating has been dried, the plants are slightly injured by using a sandblast and afterwards they are sprayed with a conidia suspension of Fusarium nivale (var. majus).

Fusarium graminearum = type: in vivo; details: 500 ppm of active ingredient; barley, preventive; evaluated 5 days after inoculation
Botrytis cinerea = experiment: In vivo preventive test on Botrytis cinerea (grey mould); details: gherkin plants, preventive spray, evaluated 4 to 5 days after inoculation
Method: The young plants of gherkin are treated by spraying the active ingredient prepared as described above. Control plants are treated only with an aqueous solution of acetone/Dimethyl sulfoxide/Tween®. After 24 hours, the plants are contaminated by spraying the leaves with an aqueous suspension of Botrytis cinerea spores. The contaminated gherkin plants are incubated for 4 to 5 days at 17° C. and at 90% relative humidity.

[2] = system: Blumeria graminis fsp. hordei; experiment: Blumeria test (barley)/preventive; type: in vivo; details: 500 ppm of active ingredient, preventive, evaluated 7 days after inoculation
Method: as §1, with “dusted with spores of Blumeria graminis fsp. hordei. The plants are placed in the greenhouse at” for “slightly injured by using”, “temperature of approximately 18° C.” for “sandblast”, “and” for “and afterwards they are sprayed with”, “relative atmospheric humidity” for “conidia suspension”, “approximately 80% to promote the development of mildew pustules.” for “Fusarium nivale (var. majus).”

Venturia inaequalis = experiment: Venturia test (apples)/preventive; type: in vivo; details: 100 ppm of active ingredient, preventive, evaluated 10 days after inoculation
Method: Solvent: 24.5 parts by weight of acetone • 24.5 parts by weight of dimethylacetamide Emulsifier: 1 part by weight of alkylaryl polyglycol ether To produce a suitable preparation of active compound, 1 part by weight of active compound is mixed with the stated amounts of solvent and emulsifier, and the concentrate is diluted with water to the desired concentration. To test for preventive activity, young plants are sprayed with the preparation of active compound at the stated rate of application. […] The plants are then placed in a greenhouse at approximately 21° C. and a relative atmospheric humidity of approximately 90%.

Pyricularia oryzae [3] = type: in vivo; details: 500 ppm of active ingredient; rice, preventive; evaluated 8 days after inoculation
Uromyces appendiculatus = experiment: In vivo preventive test on Uromyces appendiculatus (bean rust); details: bean plants, preventive spray, evaluated 11 days after inoculation
Method: (§2) The young plants of bean are treated by spraying the active ingredient prepared as described above. Control plants are treated only with an aqueous solution of acetone/Dimethyl sulfoxide/Tween®. After 24 hours, the plants are contaminated by spraying the leaves with an aqueous suspension of Uromyces appendiculatus spores.

Puccinia recondita = experiment: In vivo preventive test on Puccinia recondita (brown rust on wheat); details: wheat plants, preventive spray, evaluated 11 days after inoculation
Method: as §2, with “wheat” for “bean”, “Puccinia recondita” for “Uromyces appendiculatus”

Pyricularia oryzae [4] = type: in vivo; details: 500 ppm of active ingredient; rice plants, preventive spray; evaluated 6 days after inoculation
Fusarium culmorum = experiment: Fusarium culmorum-test (wheat)/preventive; type: in vivo; details: 500 ppm of active ingredient, preventive, evaluated 5 days after inoculation
Method: Solvent: 49 parts by weight of N,N-dimethylacetamide
Emulsifier: 1 part by weight of alkylaryl polyglycol ether
To produce a suitable preparation of active compound, 1 part by weight of active compound or active compound combination is mixed with the stated amounts of solvent and emulsifier, and the concentrate is diluted with water to the desired concentration.
To test for preventive activity, young plants are sprayed with the preparation of active compound or active compound combination at the stated rate of application. After the spray coating has been dried, the plants are slightly injured by using a sandblast and afterwards they are sprayed with a conidia suspension of Fusarium culmorum.
The plants are placed in the greenhouse under a translucent incubation cabinet at a temperature of approximately 22° C. and a relative atmospheric humidity of approximately 100%.
The test is evaluated 5 days after the inoculation. 0% means an efficacy which corresponds to that of the untreated control, while an efficacy of 100% means that no disease is observed.

Phakopsora pachyrhizi = experiment: Phakopsora test (soybeans)/preventive; type: in vivo; details: preventive, evaluated 7 days after inoculation
Leptosphaeria nodorum = Leptosphaeria nodorum test (wheat)/preventive; type: in vivo; details: 500 ppm of active ingredient, preventive, evaluated 8 days after inoculation
Method: Solvent: 49 parts by weight of N,N-dimethylacetamide Emulsifier: 1 part by weight of alkylaryl polyglycol ether To produce a suitable preparation of active compound, 1 part by weight of active compound or active compound combination is mixed with the stated amounts of solvent and emulsifier, and the concentrate is diluted with water to the desired concentration. To test for preventive activity, young plants are sprayed with the preparation of active compound or active compound combination at the stated rate of application. After the spray coating has been dried, the plants are sprayed with a spore suspension of Leptosphaeria nodorum. […] The plants are placed in the greenhouse at a temperature of approximately 22° C. and a relative atmospheric humidity of approximately 80%.

Sphaerotheca fuliginea = experiment: In vivo preventive test on Sphaerotheca fuliginea (powdery mildew on cucurbits); details: gherkin plants, preventive spray, evaluated 15 days after inoculation
Method: as §2, with “gherkin” for “bean”, “Sphaerotheca fuliginea” for “Uromyces appendiculatus”

Septoria tritici = experiment: In vivo preventive test on Septoria tritici (leaf spot on wheat); details: wheat plants, preventive spray, evaluated 24 days after inoculation
Method: as §2, with “wheat” for “bean”, “Septoria tritici” for “Uromyces appendiculatus”

Podosphaera leucotricha = experiment: Podosphaera test (apples)/preventive; type: in vivo; details: 100 ppm of active ingredient, preventive, evaluated 10 days after inoculation
Method: Solvent: 24.5 parts by weight of acetone • 24.5 parts by weight of dimethylacetamide Emulsifier: 1 part by weight of alkylaryl polyglycol ether To produce a suitable preparation of active compound, 1 part by weight of active compound is mixed with the stated amounts of solvent and emulsifier, and the concentrate is diluted with water to the desired concentration. To test for preventive activity, young plants are sprayed with the preparation of active compound at the stated rate of application. After the spray coating has dried on, the plants are inoculated with an aqueous spore suspension of the causal agent of apple mildew (Podosphaera leucotricha). The plants are then placed in a greenhouse at approximately 23° C. and a relative atmospheric humidity of approximately 70%.

physchem = details: pH 2.7
Pyrenophora teres = experiment: In vivo preventive test on Pyrenophora teres (net blotch on barley); details: barley plants, preventive spray, evaluated 14 days after inoculation
Method: as §2, with “barley” for “bean”, “Pyrenophora teres” for “Uromyces appendiculatus”

Structure (SMILES) | Eff. % [1] | Eff. % (Fusarium graminearum) | Eff. % (Botrytis cinerea; 500 ppm of active ingredient) | Eff. % [2] | Eff. % (Venturia inaequalis) | Eff. % (Pyricularia oryzae [3]) | Eff. % (Uromyces appendiculatus; 500 ppm of active ingredient) | Eff. % (Puccinia recondita; 500 ppm of active ingredient) | Eff. % (Fusarium culmorum) | LogP (pH 2.7) | Eff. % (Phakopsora pachyrhizi; 100 ppm of active ingredient) | Eff. % (Leptosphaeria nodorum) | Eff. % (Sphaerotheca fuliginea; 500 ppm of active ingredient) | Eff. % (Septoria tritici; 500 ppm of active ingredient) | Eff. % (Uromyces appendiculatus; 100 ppm of active ingredient) | Eff. % (Puccinia recondita; 100 ppm of active ingredient) | Eff. % (Sphaerotheca fuliginea; 100 ppm of active ingredient) | Eff. % (Botrytis cinerea; 100 ppm of active ingredient) | Eff. % (Septoria tritici; 100 ppm of active ingredient) | Eff. % (Pyrenophora teres; 500 ppm of active ingredient) | further results
CC(C)(C)C(O)(Cc1cccnc1Cl)Cn1cncn1 (stereo not shown) [Example I-3] | 100% | 100% | 100% | 100% | 100% | 75% | 100% | 97% | 100% | 1.94 | 100% | 100% | 100% | 100% |  |  |  |  |  |  | Eff. % (Pyricularia oryzae [4]): 88%; LogP (pH 7.8): 1.90; Eff. % (Podosphaera leucotricha): 100%
CC(C)(C)C(O)(Cc1ccncc1Cl)Cn1cncn1 (stereo not shown) [Example I-4, 1-(3-chloropyridin-4-yl)-3,3-dimethyl-2-(1H-1,2,4-triazol-1-ylmethyl)butan-2-ol] | 100% | 92% |  | 100% | 94% |  |  |  | 93% |  | 99% | 88% |  |  | 100% | 88% | 100% |  |  |  | chromatographic logP (physchem; reversed phase HPLC columns): 1.74; Eff. % (Pyrenophora teres; 100 ppm of active ingredient): 83%
CCC(C)(C)C(O)(Cc1ccncc1Cl)Cn1cncn1 (stereo not shown) [Example I-5] | 100% | 100% |  | 100% |  | 93% |  |  | 100% | 2.13^[a] |  | 100% |  |  | 100% | 90% | 100% | 89% | 97% |  | Eff. % (Pyrenophora teres; 100 ppm of active ingredient): 83%
CC(C)(C)C(O)(Cc1ccncc1F)Cn1cncn1 (stereo not shown) [Example I-6] | 100% | 100% |  | 100% | 96% | 94% |  |  | 100% | 1.41^[a] | 99% | 100% |  |  | 100% | 88% | 100% | 100% | 98% |  | 
CCC(C)(C)C(O)(Cc1ccncc1F)Cn1cncn1 (stereo not shown) [Example I-7] | 100% | 100% |  | 100% |  | 89% |  |  | 100% |  |  | 100% |  |  | 100% | 81% | 100% | 97% | 81% |  | LogP (method [a]: LC-MS at pH 2.7, 0.1% formic acid in water / acetonitrile gradient): 1.73^[a]
CC(C)(C)C(O)(Cc1ccnc(Cl)c1F)Cn1cncn1 (stereo not shown) [Example I-27] | 100% | 100% | 100% | 100% |  |  | 100% | 98% | 100% | 2.16^[a] |  | 88% | 100% | 97% |  |  |  |  |  | 97% | Eff. % (Phakopsora pachyrhizi; 10 ppm of active ingredient): 75%
CC(C)(C)C(O)(Cc1cc(F)ncc1Cl)Cn1cncn1 (stereo not shown) [Example I-29] | 100% | 100% | 100% | 100% |  | 71% | 100% | 100% | 100% | 2.39^[a] |  | 100% | 100% | 100% |  |  |  |  |  | 93% | Eff. % (Phakopsora pachyrhizi; 10 ppm of active ingredient): 78%
OC(Cc1ccncc1Cl)(CC1CC1)Cn1cncn1 (stereo not shown) [Example I-30] | 100% |  |  | 100% |  |  | 100% | 94% |  | 1.43^[a] |  | 88% | 100% | 100% |  |  |  |  |  | 71% | 
CC(C)(C)C(=O)Cc1cccnc1Cl [Example V-4, 1-(2-chloropyridin-3-yl)-3,3-dimethylbutan-2-one] |  |  |  |  |  |  |  |  |  |  |  |  |  |  |  |  |  |  |  |  | chromatographic logP (physchem): 2.34
CC(C)(C)C1(Cc2ccncc2Cl)CO1 (stereo not shown) [XII-5, 4-[(2-tert-butyloxiran-2-yl)methyl]-3-chloropyridine] |  |  |  |  |  |  |  |  |  |  |  |  |  |  |  |  |  |  |  |  | chromatographic logP (physchem): 2.8
